Test results reported in US20260283972A1, “A COMPOUND FOR PREPARING LIPID NANOPARTICLES ENCAPSULATING AN AGENT, NANOPARTICLE COMPOSITION COMPRISING SAID COMPOUND AND RELATED METHODS THEREOF” (AGENCY FOR SCIENCE, TECHNOLOGY AND RESEARCH, priority 2023, published 2026).
Entries after “also recorded” stand apart in the source; their conditions may differ.

Columns and labels:
Assay type in all cases: cell-based
SH-SY5Y cells = assay: In vitro neurotoxicity, cell viability (AlamarBlue)
Method: HEK293 cells were grown in Dulbecco's […] (DMEM) supplemented with 10% FBS and 5% penicillin/streptomycin (Corning). SY-SY5Y cells were grown with a mixture of DMEM/Ham's F-12 with 2 mM L-glutamine (50:50 v/v) supplemented with 10% FBS and 5% penicillin/streptomycin. All cultures were grown in 37° C. incubators supplemented with 5% CO2 and were cultured according to suppliers' instructions. For all screening, cells were plated in 96-well plates at 10,000 cells per well in 100 μL of the appropriate media outlined above for the different cells. The formulated LNPs containing polymyxin B and free polymyxin B were then added to the wells at the desired polymyxin B concentration (e.g., 300, 150, 75, 37.5, 18.8, 9.4 μg mL^−1). The polymyxin B concentration of formulated LNPs was determined using the calibration plot of polymyxin B standards.

[1] = test system: Escherichia coli (ATCC No. 25922); assay: Antibacterial activity in vitro, broth microdilution MIC and MBC; settings: for MIC E. coli: 24 h at 37° C.
Method: (§1) The MICs (minimum inhibitory concentrations) of the formulated LNPs containing polymyxin B and free polymyxin B against Gram-negative bacteria were determined using a broth microdilution method. Briefly, the bacteria were incubated overnight in MHB, and the bacteria suspension was diluted with MHB to achieve a concentration of […] (CFU)/mL (O.D. 600=0.100). This was followed by a 1000-fold dilution in MHB. The bacterial suspension was then seeded into a 96-well plate (80 μL per well) and mixed with 20 μL of MHB containing different polymyxin B-loaded LNPs or free polymyxin B concentrations. The 96-well plate was incubated for 24 h at 37° C. (bacteria). […] The MIC experiments were performed with four independent replicates. The MBCs (minimum bactericidal concentrations) were evaluated at the end of the MIC experiment.
(§2) The microbial suspension was then spread on LB agar plates, and the plates were incubated at 37° C. for 24 h to determine CFU on each agar plate. The experiments were performed in replicates of five. The MBC experiment was conducted with three independent replicates.

[2] = test system: Pseudomonas aeruginosa (ATCC No. 9027); assay: as above; settings: for MIC P. aeruginosa: 24 h at 37° C.
Method: as §1, §2

[3] = Table 6, experiment with 2nd formulation
[4] = Table 7, experiment with 1st formulation

Polymyxin B [Polymyxin B (PB)]
viability of SH-SY5Y cells (SH-SY5Y cells; 300 μg mL^−1 of polymyxin B, 24 h incubation): ~ 76%
neurotoxicity / cell toxicity against SH-SY5Y (SH-SY5Y cells; high concentration, 300 μg mL^−1, listed as free polymyxin B): relatively pronounced cell toxicity; also recorded: Pronounced neurotoxicity was observed
MBC E. coli [1, 3]: 5.0 µg/mL
MIC E. coli [1, 3]: 1.25 µg/mL
MBC E. coli [1, 4]: 5.0 µg/mL
MIC E. coli [1, 4]: 5.0 µg/mL
MBC P. aeruginosa [2, 3]: 2.50 µg/mL
MIC P. aeruginosa [2, 3]: 1.25 µg/mL
MBC P. aeruginosa [2, 4]: 5.0 µg/mL
MIC P. aeruginosa [2, 4]: 5.0 µg/mL
